Laboratory results taken from patent publication US20100119599A1 (ARCHER PHARMACEUTICALS, INC., priority 2006, published 2010).

Columns and labels:
Aβ1-40 = experiment: Measurement of Aβ1-40 in culture medium of 7W WT APP751 CHO cells by ELISA; type: cell-based, Chinese hamster; conditions: for activity at 5 µM: Cricetulus griseus, Table 1, 5 μM test compound, CHO cells stably transfected with human APP751, culture medium, ELISA, control DMSO, 0 = no detectable amount; for Aβ1-40 (% of control): CHO cells that overexpress APP751, zero = below the detection limit of the assay
Aβ1-42 = experiment: Measurement of Aβ1-42 in culture medium of 7W WT APP751 CHO cells by ELISA; type: cell-based, Chinese hamster; conditions: for activity at 5 µM: Cricetulus griseus, Table 1, 5 μM test compound, CHO cells stably transfected with human APP751, culture medium, ELISA, control DMSO, 0 = no detectable amount, read-out: Aβ1-42 (% of control); for Aβ1-42 (% of control): CHO cells that overexpress APP751, zero = below the detection limit of the assay
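Note: 5 µM test compound but RI-coded compounds at 10 µM for 24 hours.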

| SMILES | activity at 5 µM (Aβ1-40) [%] | activity at 5 µM (Aβ1-42) [%] | Aβ1-40 (% of control) (Aβ1-40) | Aβ1-42 (% of control) (Aβ1-42) |
| --- | --- | --- | --- | --- |
| CC1=C(C(=O)OCCOc2ccccc2)C(c2ccc(F)cc2)C2=C(CCCC2=O)N1 (centres unmarked) [ST014891, 2-phenoxyethyl 4-(4-fluorophenyl)-2-methyl-5-oxo-1,4,6,7,8-pentahydroquinoline-3-carboxylate] | 51.8 | 39.3 |  |  |
| CSC1=C(C#N)C(c2ccc(Cl)cc2)C(C(=O)OC(C)(C)C)=C(C)N1 (centres unmarked) [ST050983, tert-butyl 4-(4-chlorophenyl)-5-cyano-2-methyl-6-methylthio-1,4-dihydropyridine-3-carboxylate] |  |  | 51.3 % of control | 0 % of control |
| CC1=C(C(=O)OCC(C)C)C(c2ccc(Cl)cc2)C2=C(CC(c3ccc(Cl)cc3)CC2=O)N1 (centres unmarked) [ST017070, 2-methylpropyl 4,7-bis(4-chlorophenyl)-2-methyl-5-oxo-1,4,6,7,8-pentahydroquinoline-3-carboxylate] | 55.4 | 89.1 |  |  |
| CC1=C(C(=O)OCCOc2ccccc2)C(c2ccc(Cl)cc2)C2=C(CC(C)(C)CC2=O)N1 (centres unmarked) [ST015093, 2-phenoxyethyl 4-(4-chlorophenyl)-2,7,7-trimethyl-5-oxo-1,4,6,7,8-pentahydroquinoline-3-carboxylate] | 0 | 0 |  |  |
| N#CC1=C(N)NC(SCC(N)=O)=C(C#N)C1c1ccc(Cl)cc1 (centres unmarked) [RI_3] |  |  | 97.4 % of control | 51.2 % of control |
| CSc1ccc(C2C(C(=O)OCCOc3ccccc3)=C(C)NC3=C2C(=O)CCC3)cc1 (centres unmarked) [ST015072, 2-phenoxyethyl 2-methyl-4-(4-methylthiophenyl)-5-oxo-1,4,6,7,8-pentahydroquinoline-3-carboxylate] | 19.3 | 59.4 |  |  |
| N#CC1=C(N)n2c(s/c(=C/c3ccncc3)c2=O)=C(C#N)C1c1ccncc1 (centres unmarked) [ST211853, 5-amino-3-oxo-7-(4-pyridyl)-2-(4-pyridylmethylene)-4,7-dihydro-1,3-thiazolidino[3,2-a]pyridine-6,8-dicarbonitrile] |  |  | 49 % of control | 18.37 % of control |
| COc1ccccc1C1C(C(=O)OC(C)C)=C(C)NC2=C1C(=O)CC(c1ccccc1)C2 (centres unmarked) [ST017220, methylethyl 4-(2-methoxyphenyl)-2-methyl-5-oxo-7-phenyl-1,4,6,7,8-pentahydroquinoline-3-carboxylate] | 60.9 | 99.6 |  |  |
| CCOC(=O)C1=C(C)NC2=C(C(=O)CC(c3ccc(Cl)cc3)C2)C1c1cccc(Cl)c1Cl (centres unmarked) [ST015068, ethyl 4-(2,3-dichlorophenyl)-7-(4-chlorophenyl)-2-methyl-5-oxo-1,4,6,7,8-pentahydroquinoline-3-carboxylate] | 46.3 | 83.8 |  |  |
| CCOC(=O)C1=CN(c2cc(C)ccc2C)C=C(C(=O)OCC)C1c1cc(OC)c(OC)c(OC)c1 [ST052491, ethyl 1-(2,5-dimethylphenyl)-5-(ethoxycarbonyl)-4-(3,4,5-trimethoxyphenyl)-1,4-dihydropyridine-3-carboxylate] |  |  | 70.29 % of control | 28.35 % of control |
| COc1cc(/C=c2\sc3n(c2=O)C(N)=C(C#N)C(c2ccc(OC(C)C)c(OC)c2)C=3C#N)ccc1OC(C)C (centres unmarked) [ST025029, 5-amino-7-[3-methoxy-4-(methylethoxy)phenyl]-2-{[3-methoxy-4-(methylethoxy)phenyl]methylene}-3-oxo-4,7-dihydro-1,3-thiazolidino[3,2-a]pyridine-6,8-dicarbonitrile] |  |  | 65.7 % of control | 73.69 % of control |
| CC1=C(C(=O)OCC(C)C)C(c2ccc3c(c2)OCO3)C2=C(CC(c3ccccc3)CC2=O)N1 (centres unmarked) [ST016978, 2-methylpropyl 4-(2H-benzo[3,4-d]1,3-dioxolen-5-yl)-2-methyl-5-oxo-7-phenyl-1,4,6,7,8-pentahydroquinoline-3-carboxylate] | 45.9 | 99.5 |  |  |
| CC(=O)Oc1ccc(C2C(C(=O)OC(C)C)=C(C)NC3=C2C(=O)CCC3)cc1 (centres unmarked) [ST013192, 4-{2-methyl-3-[(methylethyl)oxycarbonyl]-5-oxo-4-1,4,6,7,8-pentahydroquinolyl} phenyl acetate] | 55.5 | 82.5 |  |  |
| CC1=C(C(=O)OC(C)C)C(c2ccccc2)C2=C(CC(c3ccccc3)CC2=O)N1 (centres unmarked) [ST017212, methylethyl 2-methyl-5-oxo-4,7-diphenyl-1,4,6,7,8-pentahydroquinoline-3-carboxylate] | 25.4 | 57.1 |  |  |
| CCCCOC(=O)C1=C(C)NC2=C(C(=O)CC(C)(C)C2)C1c1cccc2ccccc12 (centres unmarked) [ST013208, butyl 2,7,7-tnmethyl-4-naphthyl-5-oxo-1,4,6,7,8-pentahydroquinoline-3-carboxylate] | 0 | 20.2 |  |  |
| CC1=C(C(=O)OCC(C)C)C(c2cccc(Cl)c2)C2=C(CC(c3ccccc3)CC2=O)N1 (centres unmarked) [ST016969, 2-methylpropyl 4-(3-chlorophenyl)-2-methyl-5-oxo-7-phenyl-1,4,6,7,8-pentahydroquinoline-3-carboxylate] | 30.3 | 60.2 |  |  |

| SMILES | activity at 5 µM (Aβ1-40) [%] | activity at 5 µM (Aβ1-42) [%] | Aβ1-40 (% of control) (Aβ1-40) | Aβ1-42 (% of control) (Aβ1-42) |
| --- | --- | --- | --- | --- |
| CCOC(=O)C1=C(C)NC2=C(C(=O)CC(c3ccc(OC)cc3)C2)C1c1ccc(OCc2ccccc2)cc1 (centres unmarked) [ST017078, ethyl 7-(4-methoxyphenyl)-2-methyl-5-oxo-4-[4-(phenylmethoxy)phenyl]-1,4,6,7,8-pentahydroquinoline-3-carboxylate] | 51.8 | 49.4 |  |  |
| CC1=C(C(=O)OCc2ccccc2)C(c2ccc([N+](=O)[O-])cc2)C2=C(CC(C)(C)CC2=O)N1 (centres unmarked) [ST013214, phenylmethyl 2,7,7-trimethyl-4-(4-nitrophenyl)-5-oxo-1,4,6,7,8-pentahydroquinoline-3-carboxylate] | 0 | 4.36 |  |  |
| CCOC(=O)C1=C(N)n2c(s/c(=C\c3ccc(C(C)C)cc3)c2=O)=C(S(=O)(=O)c2ccccc2)C1c1ccc(C(C)C)cc1 (centres unmarked) [ST011326] |  |  | 54.94 % of control | 72.95 % of control |
| CCCCOC(=O)C1=C(C)NC2=C(C(=O)CC(C)(C)C2)C1c1ccc(Cl)cc1 (centres unmarked) [ST024431, butyl 4-(4-chlorophenyl)-2,7,7-trimethyl-5-oxo-1,4,6,7,8-pentahydroquinoline-3-carboxylate] | 0 | 0 |  |  |
| COC(=O)C1=C(C)NC2=C(C(=O)CC(C)(C)C2)C1c1ccc(OCc2cccc(C(F)(F)F)c2)c(OC)c1 (centres unmarked) [ST028607, methyl 4-(3-methoxy-4-{[3-(trifluoromethyl)phenyl]methoxy}phenyl)-2,7,7-trimethyl-5-oxo-1,4,6,7,8-pentahydroquinoline-3-carboxylate] | 23.8 | 63.3 |  |  |
| CC1=C(C(N)=O)C(c2ccccc2)C(C#N)=C(SCC(=O)Nc2cccc(C)c2)N1 (centres unmarked) [RI_30] |  |  | 94.9 % of control | 48.2 % of control |
| CCc1ccc(C2C(C(=O)OC3CCCCC3)=C(C)NC3=C2C(=O)CCC3)cc1 (centres unmarked) [ST013320, cyclohexyl 4-(4-ethylphenyl)-2-methyl-5-oxo-1,4,6,7,8-pentahydroquinoline-3-carboxylate] | 60.2 | 71.8 |  |  |
| N#CC1=C(N)N(c2ccc(F)cc2)C2=C(C(=O)CC(c3ccccc3)C2)C1c1ccsc1 (centres unmarked) [ST040993, 2-amino-1-(4-fluorophenyl)-5-oxo-7-phenyl-4-(3-thienyl)-1,4,6,7,8-pentahydroquinoline-3-carbonitrile] | 65.7 | 46.9 |  |  |
| COc1ccc(C2CC(=O)C3=C(C2)NC(C)=C(C(=O)OCc2ccccc2)C3c2ccncc2)cc1 (centres unmarked) [ST017266, phenylmethyl 7-(4-methoxyphenyl)-2-methyl-5-oxo-4-(4-pyridyl)-1,4,6,7,8-pentahydroquinoline-3-carboxylate] | 65.5 | 64.6 |  |  |
| CCOc1ccccc1C1C(C(=O)OCC(C)C)=C(C)NC2=C1C(=O)CC(c1ccc(Cl)cc1)C2 (centres unmarked) [ST017038, 2-methyipropyl 7-(4-chlorophenyl)-4-(2-ethoxyphenyl)-2-methyl-5-oxo-1,4,6,7,8-pentahydroquinoline-3-carboxylate] | 42.7 | 81.9 |  |  |
| CC1=C(C(=O)OC2CCCC2)C(c2ccc(F)c(F)c2)C2=C(CCCC2=O)N1 (centres unmarked) [ST052267, cyclopentyl 4-(3,4-difluorophenyl)-2-methyl-5-oxo-1,4,6,7,8-pentahydroquinoline-3-carboxylate] | 50.7 | 52.8 |  |  |
| COC(=O)C1=C(C)NC(C)=C(C(=O)OC)C1c1cccc(Br)c1 [ST208634, methyl 4-(3-bromophenyl)-5-(methoxycarbonyl)-2,6-dimethyl-1,4-dihydropyridine-3-carboxylate] |  |  | 80.5 % of control | 32.51 % of control |
| COc1ccc(C2C(C(=O)OCCc3ccccc3)=C(C)NC3=C2C(=O)CC(C)(C)C3)c(OC)c1 (centres unmarked) [ST015090, 2-phenylethyl 4-(2,4-dimethoxyphenyl)-2,7,7-trimethyl-5-oxo-1,4,6,7,8-pentahydroquinoline-3-carboxylate] | 15.4 | 34.9 |  |  |
| CC1=C(C(=O)OCCOc2ccccc2)C(c2coc3ccc(C)cc3c2=O)C2=C(CC(C)(C)CC2=O)N1 (centres unmarked) [ST052392, 2-phenoxyethyl 2,7,7-trimethyl-4-(6-methyl-4-oxochromen-3-yl)-5-oxo-1,4,6,7,8-pentahydroquinoline-3-carboxylate] | 28.1 | 11.9 |  |  |
| CC1=C(C(=O)OC2CCCCCC2)C(c2cccc(Br)c2)C2=C(CC(C)(C)CC2=O)N1 (centres unmarked) [ST024487, cycloheptyl 4-(3-bromophenyl)-2,7,7-trimethyl-5-oxo-1,4,6,7,8-pentahydroquinoline-3-carboxylate] | 5.07 | 3.77 |  |  |
